According to patent US7862844B2, “Taste improving substances” (Quest International Services B.V., priority 2005, dated 2011):

Legend:
[1] = tasting different fractions of the Example 1 product (LC-MS, 1H NMR identification); details: fractions of the lactic acid/GMP reaction product of Example 1
Experimental: 1000 g of lactic acid (about 90% pure), 50 g of NaCl and 250 g of GMP were thoroughly mixed. The mixture was heated and stirred at 100° C. for 4 hour. The mixture was cooled to 60° C. and 4000 g of ethyl acetate was added. The mixture was stirred for 1 h. Next, the mixture was filtered over a glass filter and the filter residue was washed with 1000 g ethyl acetate. Thus, 362 g of an almost white powder was obtained. The main taste components of the obtained product were identified by LC-MS and tasting different fractions.

[2] = samples tasted by a professional panel
Experimental: The following samples were prepared:
A: 0.6% NaCl and 0.03% MSG
B: 0.01% Fraction 2 as obtained in example 1
C: 0.6% NaCl and 0.03% MSG and 0.5 ppt Fraction B as obtained in example 1
D: 0.6% NaCl and 0.03% MSG and 0.4 ppb Fraction A as obtained in example 1
The samples were tasted by a professional panel and described as follows: […]

N-Lactoyl-GMP [Fraction B]
taste of the fractions containing the substance [1]: “long-lasting” and “kokumi” | taste description by professional panel ([2]; sample B: 0.01% of the fraction alone): mild acidic, late onset umami, kokumi, full, sweet, very lingering | taste description by professional panel ([2]; sample C: 0.5 ppt of the fraction with 0.6% NaCl and 0.03% MSG (base alone: salty, umami)): salty, umami, full, mouthfeel, kokumi, salivating and very lingering

O-Lactoyl-GMP [Fraction A]
taste of the fractions containing the substance [1]: “long-lasting” and “kokumi” | taste description by professional panel ([2]; sample D: 0.4 ppb of the fraction with 0.6% NaCl and 0.03% MSG (base alone: salty, umami)): salty, umami, full, after taste and lingering
